The values below are quoted from earlier work in patent US20070178172A1, “Composition for reducing blood lipids” (MAXLUCK BIOTECHNOLOGY CORP., priority 2004, published 2007).

The subject of the data set is obesity mouse. To be noted: Cefalu et al. 2002.

As to chromium picolinate, the “effect on blood lipids” value was “could reduce the blood lipids”.
